Laboratory results taken from publication PMC10135756 (2023).
Each block holds one compound with its values, some of them ahead of it.

What was measured:
[1] = system: DNA1 (DNA, other) ACGACACGGAGGCTTAGTTTGCTAAATGGTCATGTCGT; test: SGI fluorescence; settings: 500 mM NaCl, 20 mM MgCl2; 50 mM Tris pH 7.6; 0.02× SGI, 200 nM DNA1
[2] = system: CSS.1-42 (DNA, aptamer) GACGACGCCCGCATGTTCCATGGATAGTCTTGACTAGTCGTC; test: SGI fluorescence; settings: 100 mM NaCl, 10 mM MgCl2; 20 mM HEPES pH 7.5; 0.1× SGI, 1 μM aptamer
[3] = system: CSS.1-42 (DNA, aptamer) GACGACGCCCGCATGTTCCATGGATAGTCTTGACTAGTCGTC; test: SGI fluorescence increase, microplate; settings: 100 mM NaCl, 10 mM MgCl2; 20 mM HEPES pH 7.5; 0.1× SGI, 1 μM aptamer; with and without 0.01% Triton X-100; up to 6 μM
[4] = system: Ade Apt (adenosine aptamer, WT) (DNA, aptamer) ACCTGGGGGAGTATTGCGGAGGAAGGT; test: ThT fluorescence; settings: 50 mM NaCl, 4 mM MgCl2; 10 mM HEPES pH 7.6; 2 μM ThT, 100 nM aptamer
[5] = system: Ade Apt (adenosine aptamer, WT) (DNA, aptamer) ACCTGGGGGAGTATTGCGGAGGAAGGT; test: ThT displacement fluorescence, quartz cuvette; settings: 50 mM NaCl, 4 mM MgCl2, 10 mM HEPES pH 7.6, 20 °C
[6] = system: Ade Apt M2 (DNA, aptamer) ACCTGGGGTAGTATTGCGGAGTAAGGT; test: ThT displacement fluorescence, quartz cuvette; settings: 50 mM NaCl, 4 mM MgCl2; 10 mM HEPES pH 7.6, 20 °C; 2 μM ThT; up to 500 μM

- binding [1]: yes
- binding [2]: weak
Structure (SMILES): CCCN(CCCN(C)C)c1cc(C=C2Sc3ccccc3N2C)c2ccccc2[n+]1-c1ccccc1

- binding [3]: yes
Structure (SMILES): C[C@]12CCC(=O)C=C1CC[C@@H]1[C@@H]2[C@@H](O)C[C@@]2(C)[C@H]1CC[C@]2(O)C(=O)CO

- binding [4]: yes
Structure (SMILES): Cc1ccc2c(c1)sc(-c1ccc(N(C)C)cc1)[n+]2C

- binding ([5]; 2 μM ThT, up to 500 μM): no
Structure (SMILES): Nc1nc2c(ncn2[C@@H]2O[C@H](CO)[C@@H](O)[C@H]2O)c(=O)[nH]1

- Kd ([5]; 2 μM ThT displaced, 100 nM aptamer, 10 min equilibration, apparent): 16.6 ± 8.4 µM
- binding [6]: no
Structure (SMILES): Nc1ncnc2c1ncn2[C@@H]1O[C@H](CO)[C@@H](O)[C@H]1O
